Measurements from PMC5612656, “In vitro and in vivo effects of 2,4 diaminoquinazoline inhibitors of the decapping scavenger enzyme DcpS: Context-specific modulation of SMN transcript levels” (PLoS ONE, 2017).

What was measured:
[1] = tested on: Renilla luciferase driven by the CMV promoter; assay: Reporter gene assay, CMV-driven Renilla luciferase; assay type: cell-based; conditions: 24 hrs
Experimental: (§1) The SMN2 reporter cell line was cultured in high-glucose DMEM supplemented with 10% (v/v) fetal bovine serum (FBS) and 1X Penicillin/Streptomycin. Reporter cells media was supplemented with hygromycin during maintenance. All cells were maintained at 37°C and […]. After seeding in 96-well white tissue culture plates at 25,000 per well, cells were incubated overnight before being exposed to different doses of compounds or DMSO for 24 hrs. The final DMSO concentration was kept constant at 0.1% (v/v). Firefly and renilla luciferase expression were assayed with DualGlo (Promega E2920) and measured on a PHERAstar FS microplate reader (BMG Labtech). Relative light units are normalized to DMSO control and expressed as a percentage.

[2] = tested on: firefly luciferase driven by the SMN2 promoter and SMN2 splicing cassette; assay: SMN2 reporter gene assay, firefly luciferase; assay type: cell-based; conditions: 24 hrs
Experimental: as §1

N2a cells = assay: RNA-Seq (polyA RNA) of N2a neuroblastoma cells; assay type: cell-based, mouse; conditions: 1 μM
Experimental: Cells were then pelleted and lysed in RLT and the RNA was purified according to the protocol for the Qiagen miRNeasy kit to separate and enrich small RNA and large (>200 nt) fractions separately. […] RNA quality was also validated using qPCR for DcpS responsive genes. RNA fractions were used for cDNA library preparation which was performed using Truseq mRNA v2 reagents or TailorMix miRNA reagents (RS-122-2101 Illumina, San Diego CA, USA and TM302 Seqmatic, Fremont CA, USA). Libraries were run on a Nextseq 500 (Illumina) using a paired-end run (2x75bp) generating ~60 million reads per library for the mRNA-seq and 1x75bp generating ~5 million reads per library for the miRNA-seq. Demultiplexing, alignment, and differential analysis for the mRNA-seq were performed as described below. For the miRNA alignment, briefly the sequences between 16 and 35 nucleotides with average phred score ≥ 30 were retained for analysis. The reads were first mapped to mouse miRNAs using Bowtie without allowing for mismatches. Instead of discarding the remaining reads, we explored the possibilities of RNA editing to include potential isomiRs. These reads were mapped to miRNAs that have at most 1 base mismatch, a substitution at the 5’ or 3’ ends, or have 1 or 2 extra bases at either ends. Although 1 base mismatch would include 1 base substitution/deletion/addition at the ends, we made sure that 1 base mismatch was inside the miRNA and that all categories were mutually exclusive. Reads mapping to protein coding exons and other small RNAs were removed prior to mapping to miRNAs. Reads that uniquely mapped to miRNAs were considered and were profiled as: 1) identical to miRNAs, 2) perfect match to miRNAs but are of shorter length (no more than 5 bases short), 3) mapping to miRNAs with 1 substitution, 1 or 2 extra bases at 3’ and 5’ ends and with those with at most 1 mismatch (occurring inside the sequence and not on ends), 4) mapping to the precursor miRNA. Thus, steps 2–4 constitute “IsomiRs”-alternative forms of the mature miRNAs. We merged the counts of reads identical to a miR and those mapping to isomeric forms as they are found to have identical/very similar functions. The unaligned reads were mapped to the mouse genome and an internally developed database of rRNAs from bacteria, fungi, plant and eukaryotes to detect presence of contaminants. For differential analysis of miRNAs, only those with counts of ≥5 in at least 1/3rd samples (treatment vs control) were considered for analysis. The counts were normalized and analyzed using EdgeR [19] packages in R-Bioconductor. The P-values were corrected by FDR for multiple testing and miRNAs with FDR ≤15% and |FC|>1.5 were considered to be differentially expressed.
The differentially regulated gene lists for both the spinal cord mRNA-seq and the N2a mRNA-seq results with a corrected P-value less than 0.05 were loaded into IPA and analyzed against the Ingenuity Knowledgebase, Ingenuity Expert Information, and with experimentally observed confidence.

Smn protein [3] = assay: Smn protein in mouse tissues by Western blot; assay type: in vivo; conditions: 2B/- SMA mice
Text: (§2) At P1, pups were counted.

[4] = tested on: Smn transcripts in spinal cord, skeletal muscle, liver; assay: Smn transcripts in mouse tissues by ddPCR; assay type: in vivo
Text: as §2

[5] = Plasma drug levels after P4-P16 dosing; conditions: FVB/N background, mouse, ip
Text: Personnel conducting studies followed the approved standard operating procedures for daily monitoring, dosing, weaning and euthanasia according to the approved study protocol. […] Line maintenance was maintained by interbreeding of the congenic line and every 4th generation mice were outbred to wild type FBV/N mice (jax # 001800) to reduce the possibility of new mutations within the line. Smn 2B mice were internally developed and maintained in the DiDonato laboratory. To generate the SMA mice used in this study an intercross between Smn 2B/2B and Smn +/- mice was performed. This generated litters in which 50% of the offspring were control (2B/+) and 50% SMA (2B/-). The day of birth was considered to be P0. If pups were born after 3pm, the following day was considered P0. At P1, pups were counted. If greater than 10 pups to a cage, pups were randomly chosen and moved to another cage to increase litter size, culled to reduce litter size or genotyped at P1 and culled at P2 to reduce litter size to 10 or fewer pups. Thereafter, no culling of pups was performed for drug studies. Individual mice were genotyped from DNA obtained from tail snips by polymerase chain reaction (PCR). All mice were weaned at P21 and separated into male and female cages. […] For the PK single dose studies a single ip injection was used. […] Body weights were recorded daily in the AM and dosing volume was adjusted accordingly. […]

2B/- SMA mice [6] = assay: Combined 55° negative geotaxis/climb test in 2B/- SMA mice; assay type: in vivo, mouse
[7] = tested on: SMN transcripts in SMA-derived lymphoblasts; assay: SMN transcripts by ddPCR in SMA-derived lymphoblasts; assay type: cell-based, human; conditions: active DAQ-DcpSi vs 7-methyl analogues
[8] = Single dose PK in P13 2B/- SMA and 2B/+ littermate pups
Text: Personnel conducting studies followed the approved standard operating procedures for daily monitoring, dosing, weaning and euthanasia according to the approved study protocol. […] Line maintenance was maintained by interbreeding of the congenic line and every 4th generation mice were outbred to wild type FBV/N mice (jax # 001800) to reduce the possibility of new mutations within the line. Smn 2B mice were internally developed and maintained in the DiDonato laboratory. To generate the SMA mice used in this study an intercross between Smn 2B/2B and Smn +/- mice was performed. This generated litters in which 50% of the offspring were control (2B/+) and 50% SMA (2B/-). The day of birth was considered to be P0. If pups were born after 3pm, the following day was considered P0. At P1, pups were counted. If greater than 10 pups to a cage, pups were randomly chosen and moved to another cage to increase litter size, culled to reduce litter size or genotyped at P1 and culled at P2 to reduce litter size to 10 or fewer pups. Thereafter, no culling of pups was performed for drug studies. Individual mice were genotyped from DNA obtained from tail snips by polymerase chain reaction (PCR). All mice were weaned at P21 and separated into male and female cages. […] For the PK single dose studies a single ip injection was used. For survival studies drug level and tissue harvest mice from P4-P16 treatment, mice were treated twice daily (b.i.d.) via intraperitoneal (i.p.) injection starting on P4 and continuing until P20 or the sacrifice of the animals, whichever occurred sooner. The dosing interval was 12 hours ± 90 minutes. Body weights were recorded daily in the AM and dosing volume was adjusted accordingly. […] At P4, litters were randomized across treatment arms to uniformly control litter size and litter weight as appropriate. Litter size entry was a minimum of 6 and maximum of 10. Litters with average weights at P4 that were greater or less than two stand deviations below the average P4 litter weight of untreated litters were also excluded from study entry. […]

[9] = Single dose PK in adult FVB/N wild type mice
Text: Personnel conducting studies followed the approved standard operating procedures for daily monitoring, dosing, weaning and euthanasia according to the approved study protocol. […] Line maintenance was maintained by interbreeding of the congenic line and every 4th generation mice were outbred to wild type FBV/N mice (jax # 001800) to reduce the possibility of new mutations within the line. Smn 2B mice were internally developed and maintained in the DiDonato laboratory. To generate the SMA mice used in this study an intercross between Smn 2B/2B and Smn +/- mice was performed. This generated litters in which 50% of the offspring were control (2B/+) and 50% SMA (2B/-). The day of birth was considered to be P0. If pups were born after 3pm, the following day was considered P0. At P1, pups were counted. If greater than 10 pups to a cage, pups were randomly chosen and moved to another cage to increase litter size, culled to reduce litter size or genotyped at P1 and culled at P2 to reduce litter size to 10 or fewer pups. Thereafter, no culling of pups was performed for drug studies. Individual mice were genotyped from DNA obtained from tail snips by polymerase chain reaction (PCR). All mice were weaned at P21 and separated into male and female cages. […] For the PK single dose studies a single ip injection was used. For survival studies drug level and tissue harvest mice from P4-P16 treatment, mice were treated twice daily (b.i.d.) via intraperitoneal (i.p.) injection starting on P4 and continuing until P20 or the sacrifice of the animals, whichever occurred sooner. The dosing interval was 12 hours ± 90 minutes. Body weights were recorded daily in the AM and dosing volume was adjusted accordingly. […] At P4, litters were randomized across treatment arms to uniformly control litter size and litter weight as appropriate. Litter size entry was a minimum of 6 and maximum of 10. Litters with average weights at P4 that were greater or less than two stand deviations below the average P4 litter weight of untreated litters were also excluded from study entry. All mice within a litter were dosed with only one test article or received no dose at all. Dosers/phenotypic testers were blinded to the test articles being administered. […] Mice meeting humane functional endpoints (30 percent loss of weight for two consecutive days and/or an inability to right within 1 minute or obvious state of distress) were immediately euthanized with CO2 followed by cervical dislocation as a secondary measure. […] Those not used for analyses were also euthanized using CO2 inhalation followed by cervical dislocation as a secondary measure.

2B/- SMA mice [10] = assay: Survival and body weight study in 2B/- SMA mice; assay type: in vivo, mouse; conditions: b.i.d. i.p. P4-P20, RG3039 6 mg/kg, PF-06738066 10 mg/kg, P < 0.0001 Mantel-Cox or Gehan-Breslow-Wilcoxon
SMN protein [11] = assay: SMN protein by Western blot in SMA cells (fibroblasts, lymphoblasts, iPS-derived neural progenitor cells); assay type: cell-based, human; conditions: 24 hours to 7 days
Experimental: Lysates were incubated at 95°C for 5 minutes and cleared at 14,000 RPM for 15 minutes. Cleared lysates were quantified by BCA assay. A total of 5 μg of each lysate was mixed with NuPage LDS sample buffer with […] and loaded and separated on a NuPage 10% Bis-Tris gel. Proteins were transferred to 0.2 micron nitrocellulose using the BioRad Turbo Transfer system.

recombinant human DcpS = biological target: T1, recombinant human DcpS (Homo sapiens, UniProt Q96C86); assay: in vitro DcpS inhibition assay (m7GpppA-biotin substrate, ADP-biotin detection); assay type: biochemical; conditions: mean of two or more independent assays
T1 sequence (Q96C86 1-337): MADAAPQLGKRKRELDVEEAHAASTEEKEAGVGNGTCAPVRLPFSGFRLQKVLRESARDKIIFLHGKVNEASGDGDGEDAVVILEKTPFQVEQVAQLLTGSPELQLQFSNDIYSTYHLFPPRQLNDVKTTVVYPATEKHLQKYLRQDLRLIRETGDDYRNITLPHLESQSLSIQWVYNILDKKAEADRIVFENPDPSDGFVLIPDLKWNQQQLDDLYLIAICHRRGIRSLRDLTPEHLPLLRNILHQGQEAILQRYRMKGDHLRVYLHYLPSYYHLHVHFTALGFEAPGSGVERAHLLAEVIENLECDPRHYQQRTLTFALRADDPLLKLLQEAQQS
Experimental: Incubations were initiated by the addition of 50 nM m7GpppA-biotin substrate and proceeded for 45 min at room temperature before being terminated by the addition of 1 μM D156844 [11]. Production of ADP-biotin was quantitated by transferring 18 μl of the quenched reaction (or biotin-ADP standard) to a streptavidin-coated plate (Pierce), incubating for 2 hours then washing 3 times followed by detection using an anti-ADP mouse antibody (Bellbrook lab) and an HRP-conjugated Goat anti-mouse IgG (Invitrogen).

[12] = tested on: SMN protein in SMA patient fibroblasts; set-up: method as in PMID 18205293; conditions: cited from earlier work
[13] = cited from earlier work
SMA Δ7 mice = conditions: SMAΔ7 mice; cited from earlier work
Smn mRNA in NSC-34 cells = tested on: Smn mRNA in NSC-34 cells; set-up: method as in PMID 18205293; conditions: cited from earlier work
[14] = P16, Fisher's exact test P-value = 0.0708
[15] = adult FVB/N mice, 30 mg/kg i.p.

For `Cc1cc(OCC2CCN(Cc3c(Cl)cccc3Cl)CC2)c2c(N)nc(N)nc2c1` [PF-06802336], the “effect on CMV-driven Renilla luciferase activity” value [1] was “no effect”, the “effect on SMN2-driven firefly luciferase activity” value [2] was “no effect” and the “genes down-regulated by compound (P < 0.05)” value (N2a cells; 24 hours) was 3 genes. For the same compound, the “genes upregulated by compound (P < 0.05)” value (N2a cells; 24 hours) was 4 genes and the “genes differentially expressed compared to DMSO (P < 0.05)” value (N2a cells; 24 hours, 18,409 detectable genes) was 7 genes.

With `N#Cc1cc(F)cc(OCc2cccc3nc(N)nc(N)c23)c1` [PF-06738066] the “Smn protein levels in muscle” value (Smn protein [3]) was “small but significant increase in muscle”, the “Smn protein levels in spinal cord” value (Smn protein [3]) was “significant decrease in spinal cord” and the “effect on CMV-driven Renilla luciferase activity” value [1] was “strong effect”. For the same compound, the “Smn exons 7/8 in spinal cord” value ([4]; 2B/+ control mice) was “significant decrease”, the “Smn transcripts (exons 5/6, exons 7/8, SmnΔ7) in tissues” value ([4]; 2B/- SMA mice, P4-P16 BID i.p.) was “significant increases in Smn transcripts in all tissues” and the concentration at 12 h [5] was 184 ± 76 nM. For the same compound, the “simultaneous pass rate, 55° negative geotaxis and climb test” value (2B/- SMA mice [6]; 2B/- SMA mice at P16, combined sexes) was “about 78%”, the “improvement in ability to pass the combined assay over vehicle SMA mice” value (2B/- SMA mice [6]; [14]) was ~40% and the “statistical significance of improvement over vehicle SMA mice in combined test” value (2B/- SMA mice [6]; [14]) was “showed improvement over vehicle SMA mice that did not reach statistical significance”. For the same compound, the “changes in SMN transcripts” value [7] was “modest changes in SMN transcripts”, the “free drug levels in brain lower than in plasma” value ([8]; 2B/- SMA pups, P13, 10 mg/kg i.p.) was 3–4 fold and the concentration at 12 h ([8]; FVB/N background, mouse, brain, intraperitoneal, 10 mg/kg) was ~7 nM. The “drug exposures in SMA pups compared to healthy littermates” value ([8]; P13, 10 mg/kg i.p.) was “somewhat higher in SMA pups”, the “Cave,u Brain” value ([9]; FVB/N mice, 30mpk IP) was 63 nM and the “Cave,u CSF” value ([9]; FVB/N mice, 30mpk IP) was 47 nM. For the same compound, the “Cave,u Plasma” value ([9]; FVB/N mice, 30mpk IP) was 173 nM, the brain penetration [9, 15] was “moderate brain penetration” and the “free drug levels in brain and CSF lower than in plasma” value [9, 15] was “approximately 2.5 fold”. The “effect on survival of SMA mice compared to vehicle-treated SMA mice” value (2B/- SMA mice [10]) was “statistically significant beneficial effect on survival”.

For `CCN1CCN(c2ccc3cc(-c4cn5cc(C)nc(C)c5n4)c(=O)oc3c2)C[C@@H]1C` [SMN-C2], the “effect on CMV-driven Renilla luciferase activity” value [1] was “no effect”, the SMN protein (SMN protein [11]) was “positive SMN response” and the “effect on SMN2-driven firefly luciferase activity” value [2] was “strong positive effect”.

For `Cc1cc(COc2cc(F)cc(C#N)c2)c2c(N)nc(N)nc2c1` [PF-06832344], the IC50 (recombinant human DcpS) was > 10 µM.

In the case of `CC(C)c1cc(C(=O)Nc2ccc(F)c(Cl)c2)no1` [LDN-75654], the “effect on CMV-driven Renilla luciferase activity” value [1] is reported as “much weaker” and the “effect on SMN2-driven firefly luciferase activity” value [2] is reported as “strong positive effect”.

In the case of `Nc1nc(N)c2c(OCC3CCN(Cc4ccccc4F)CC3)cccc2n1` [D156844], the SMN protein levels [12] is listed as “raised SMN protein levels”, the “numbers of SMN-positive nuclear foci (gems)” value [12] is listed as “dramatically increased” and the “effect on CMV-driven Renilla luciferase activity” value [1] is listed as “strong effect”. For the same compound, the “physicochemical character (lipophilicity, basicity)” value [13] was “highly lipophilic and dibasic”, the “SMN2 or SMNΔ7 transcript levels or SMN protein in CNS tissues” value (SMA Δ7 mice) was “no statistically significant effect” and the snRNP assembly (SMA Δ7 mice) was “nor did it have any statistically significant effect”. The “endogenous mouse Smn mRNA” value (Smn mRNA in NSC-34 cells) was “elevated the endogenous mouse Smn mRNA”.
